# Tests used:
# Assay in all cases: kinase activity assay (ADP-Glo or radioisotope-based), dose-response; Ki from IC50 by Cheng-Prusoff
# Type in all cases: biochemical
# Aurora B kinase = target: T1, Aurora B kinase (Homo sapiens, UniProt Q96GD4)
# T1 construct: gene AURKB
# PIM1 kinase = PIM1 kinase (Homo sapiens, UniProt P11309)
# Aurora A kinase = target: T2, Aurora A kinase (Homo sapiens, UniProt O14965)
# T2 construct: gene AURKA
# T2 sequence (O14965 1-403): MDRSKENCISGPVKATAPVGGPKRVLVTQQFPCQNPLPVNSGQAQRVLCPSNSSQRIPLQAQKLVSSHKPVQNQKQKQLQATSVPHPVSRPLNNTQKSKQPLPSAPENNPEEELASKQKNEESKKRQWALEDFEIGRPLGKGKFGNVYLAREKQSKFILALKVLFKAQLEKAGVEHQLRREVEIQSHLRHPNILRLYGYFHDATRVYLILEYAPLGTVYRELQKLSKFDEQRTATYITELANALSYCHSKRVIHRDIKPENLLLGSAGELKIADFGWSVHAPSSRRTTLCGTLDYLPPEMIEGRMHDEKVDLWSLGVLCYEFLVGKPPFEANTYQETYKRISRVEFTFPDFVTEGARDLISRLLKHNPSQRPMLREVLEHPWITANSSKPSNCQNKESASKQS
# T1 sequence (Q96GD4 whole entry): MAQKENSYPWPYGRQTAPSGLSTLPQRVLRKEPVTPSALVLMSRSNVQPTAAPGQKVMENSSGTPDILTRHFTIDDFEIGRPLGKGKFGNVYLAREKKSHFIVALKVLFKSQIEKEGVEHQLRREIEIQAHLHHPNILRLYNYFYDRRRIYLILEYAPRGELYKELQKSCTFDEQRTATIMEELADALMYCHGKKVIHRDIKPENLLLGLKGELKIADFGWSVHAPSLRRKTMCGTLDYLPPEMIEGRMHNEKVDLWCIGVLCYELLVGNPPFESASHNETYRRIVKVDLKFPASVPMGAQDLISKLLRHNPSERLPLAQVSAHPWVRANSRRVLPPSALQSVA
# Sequence of PIM1 kinase (P11309 whole entry): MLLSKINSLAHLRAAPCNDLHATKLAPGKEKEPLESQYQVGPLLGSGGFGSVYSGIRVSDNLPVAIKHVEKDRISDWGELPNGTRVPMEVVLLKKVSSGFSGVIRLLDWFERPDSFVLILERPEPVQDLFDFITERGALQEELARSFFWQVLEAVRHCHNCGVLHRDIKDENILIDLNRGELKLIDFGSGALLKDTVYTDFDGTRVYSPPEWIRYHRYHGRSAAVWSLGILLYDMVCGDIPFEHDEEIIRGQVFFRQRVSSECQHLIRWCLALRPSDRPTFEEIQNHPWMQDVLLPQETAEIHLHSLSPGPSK
smiles,measurement,setting,value
"Cc1cc(/C=C/C#N)cc(C)c1Nc1ccnc(Nc2ccc(C#N)cc2)n1 [rilpivirine, 4-[[4-[[4-[(1E)-2-cyanoethenyl]-2,6-dimethylphenyl]amino]-2-pyrimidinyl]amino]benzonitrile]",Ki,Aurora B kinase,1820 nM
same,Ki,PIM1 kinase,522 nM
same,Ki,Aurora A kinase,116 nM

# Source: paper PMC9607353, “Combined In Silico and In Vitro Evidence Supporting an Aurora A Kinase Inhibitory Role of the Anti-Viral Drug Rilpivirine and an Anti-Proliferative Influence on Cancer Cells” (Pharmaceuticals, 2022)
